Results taken from ChEMBL document CHEMBL5465560, “Selectivity Literature for EUbOPEN Chemogenomic Library” (2024).

Experiments:
[1] = molecular target: High affinity nerve growth factor receptor (Homo sapiens, UniProt P04629); assay: Selectivity interaction (KinomeScan (DiscoverX)) EUB0000655a NTRK1; details: at 10 µM
[2] = test system: Epidermal growth factor receptor (Homo sapiens), P00533 [UNDEFINED MUTATION]; assay: Selectivity interaction (KinomeScan (DiscoverX)) EUB0001079a EGFR; details: at 1 µM
[3] = molecular target: Receptor tyrosine-protein kinase erbB-2 (Homo sapiens, UniProt P04626); assay: Selectivity interaction (KinomeScan (DiscoverX)) EUB0001619a ERBB2; details: at 1 µM
Receptor tyrosine-protein kinase erbB-2, sequence (P04626 whole entry): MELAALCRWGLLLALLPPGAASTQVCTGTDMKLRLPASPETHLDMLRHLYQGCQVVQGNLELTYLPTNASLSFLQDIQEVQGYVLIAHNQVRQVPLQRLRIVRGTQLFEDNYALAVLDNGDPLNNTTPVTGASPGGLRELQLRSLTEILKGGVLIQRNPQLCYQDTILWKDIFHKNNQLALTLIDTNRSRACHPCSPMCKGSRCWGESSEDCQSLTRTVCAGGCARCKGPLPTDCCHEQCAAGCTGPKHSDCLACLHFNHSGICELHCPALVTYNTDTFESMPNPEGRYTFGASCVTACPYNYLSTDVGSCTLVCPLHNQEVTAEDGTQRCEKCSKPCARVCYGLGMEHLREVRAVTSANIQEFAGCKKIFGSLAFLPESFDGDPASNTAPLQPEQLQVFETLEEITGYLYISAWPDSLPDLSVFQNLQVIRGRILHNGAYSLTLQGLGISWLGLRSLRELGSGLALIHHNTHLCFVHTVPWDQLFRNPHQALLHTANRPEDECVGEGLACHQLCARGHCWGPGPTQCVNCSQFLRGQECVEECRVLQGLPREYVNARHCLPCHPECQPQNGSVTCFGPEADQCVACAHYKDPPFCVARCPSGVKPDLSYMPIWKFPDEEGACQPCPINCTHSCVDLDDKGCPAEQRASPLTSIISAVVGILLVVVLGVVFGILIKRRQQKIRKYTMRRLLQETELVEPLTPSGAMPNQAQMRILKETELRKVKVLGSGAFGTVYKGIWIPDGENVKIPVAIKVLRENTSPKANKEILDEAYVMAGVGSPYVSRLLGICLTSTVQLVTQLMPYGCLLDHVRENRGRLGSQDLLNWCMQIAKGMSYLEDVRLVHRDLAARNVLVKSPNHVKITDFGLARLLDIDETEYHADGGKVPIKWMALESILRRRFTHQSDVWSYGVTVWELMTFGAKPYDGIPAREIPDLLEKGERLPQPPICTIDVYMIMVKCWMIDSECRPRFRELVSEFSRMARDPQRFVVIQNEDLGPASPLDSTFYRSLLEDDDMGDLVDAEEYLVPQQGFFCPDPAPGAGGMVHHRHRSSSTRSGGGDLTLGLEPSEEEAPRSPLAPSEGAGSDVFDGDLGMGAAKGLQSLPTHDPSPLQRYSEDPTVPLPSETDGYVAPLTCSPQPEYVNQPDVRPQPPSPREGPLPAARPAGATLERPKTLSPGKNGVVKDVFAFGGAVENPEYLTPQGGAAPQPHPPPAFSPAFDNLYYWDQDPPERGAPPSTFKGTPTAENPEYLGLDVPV

[4] = molecular target: Tyrosine-protein kinase JAK1 (Homo sapiens, UniProt P23458); assay: Selectivity interaction (ActivX KiNativ screen (ex vivo kinase selectivity in human PBMCs)) EUB0001619a JAK1; format: cell-based; details: PBMC, at 1 µM
Tyrosine-protein kinase JAK1, sequence (P23458 whole entry): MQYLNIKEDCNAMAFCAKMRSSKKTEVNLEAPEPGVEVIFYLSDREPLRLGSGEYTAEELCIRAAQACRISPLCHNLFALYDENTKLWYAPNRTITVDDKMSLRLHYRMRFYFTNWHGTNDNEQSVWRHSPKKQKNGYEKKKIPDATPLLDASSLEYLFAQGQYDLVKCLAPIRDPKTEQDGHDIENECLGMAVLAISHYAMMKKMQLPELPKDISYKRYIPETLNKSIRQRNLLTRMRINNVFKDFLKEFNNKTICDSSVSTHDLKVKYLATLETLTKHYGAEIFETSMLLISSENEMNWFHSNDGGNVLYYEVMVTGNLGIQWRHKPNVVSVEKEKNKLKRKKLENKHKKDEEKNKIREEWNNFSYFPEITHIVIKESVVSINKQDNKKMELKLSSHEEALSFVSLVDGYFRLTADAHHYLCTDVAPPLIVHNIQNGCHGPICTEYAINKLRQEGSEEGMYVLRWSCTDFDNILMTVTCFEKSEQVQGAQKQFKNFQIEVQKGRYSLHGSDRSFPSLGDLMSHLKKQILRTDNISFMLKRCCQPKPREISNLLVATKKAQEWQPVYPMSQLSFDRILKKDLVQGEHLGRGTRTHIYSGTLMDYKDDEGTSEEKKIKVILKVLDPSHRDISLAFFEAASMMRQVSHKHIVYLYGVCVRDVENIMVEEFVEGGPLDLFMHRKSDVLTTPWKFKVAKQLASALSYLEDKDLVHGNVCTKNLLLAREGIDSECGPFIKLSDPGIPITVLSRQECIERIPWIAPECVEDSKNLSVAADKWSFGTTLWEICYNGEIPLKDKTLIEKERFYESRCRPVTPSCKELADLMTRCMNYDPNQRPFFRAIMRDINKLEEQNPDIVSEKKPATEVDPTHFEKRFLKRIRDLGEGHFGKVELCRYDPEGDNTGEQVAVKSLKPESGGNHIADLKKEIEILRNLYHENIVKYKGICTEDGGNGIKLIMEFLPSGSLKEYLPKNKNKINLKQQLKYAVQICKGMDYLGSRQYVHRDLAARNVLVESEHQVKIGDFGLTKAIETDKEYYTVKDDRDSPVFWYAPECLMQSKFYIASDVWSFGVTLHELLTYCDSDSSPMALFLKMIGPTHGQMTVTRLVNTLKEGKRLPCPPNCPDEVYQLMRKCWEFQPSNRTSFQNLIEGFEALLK

[5] = molecular target: T1, Serine/threonine-protein kinase ICK (Homo sapiens) (UniProt Q9UPZ9); assay: Selectivity interaction (KinomeScan (DiscoverX)) EUB0001619a ICK; details: at 1 µM
T1 sequence (whole entry): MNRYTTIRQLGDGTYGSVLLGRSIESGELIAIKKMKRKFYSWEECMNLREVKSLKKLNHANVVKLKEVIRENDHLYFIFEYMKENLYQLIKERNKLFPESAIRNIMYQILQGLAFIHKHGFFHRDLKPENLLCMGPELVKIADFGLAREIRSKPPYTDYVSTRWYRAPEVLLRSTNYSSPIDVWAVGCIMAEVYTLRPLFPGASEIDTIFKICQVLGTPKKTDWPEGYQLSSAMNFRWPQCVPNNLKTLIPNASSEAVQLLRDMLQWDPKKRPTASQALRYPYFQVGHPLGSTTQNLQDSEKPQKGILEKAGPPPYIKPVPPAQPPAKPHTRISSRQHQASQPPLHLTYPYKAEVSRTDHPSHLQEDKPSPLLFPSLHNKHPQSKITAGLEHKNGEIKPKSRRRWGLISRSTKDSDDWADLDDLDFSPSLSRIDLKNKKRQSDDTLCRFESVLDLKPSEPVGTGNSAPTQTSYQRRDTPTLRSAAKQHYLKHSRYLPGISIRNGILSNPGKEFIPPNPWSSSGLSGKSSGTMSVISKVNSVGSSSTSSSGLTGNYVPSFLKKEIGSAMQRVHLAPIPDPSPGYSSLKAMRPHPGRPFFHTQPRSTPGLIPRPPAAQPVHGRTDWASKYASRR

[6] = molecular target: Angiopoietin-1 receptor (Homo sapiens) (UniProt Q02763); assay: Selectivity interaction (KinomeScan (DiscoverX)) EUB0000229b TEK; details: at 10 µM
[7] = molecular target: Calcium/calmodulin-dependent protein kinase kinase 1 (Homo sapiens) (UniProt Q8N5S9); assay: Selectivity interaction (KinomeScan (DiscoverX)) EUB0001049a CAMKK1; details: at 1 µM
[8] = molecular target: T2, Cyclin-G-associated kinase (Homo sapiens) (UniProt O14976); assay: Selectivity interaction (KinomeScan (DiscoverX)) EUB0000666a GAK; details: at 10 µM
T2 sequence (whole entry): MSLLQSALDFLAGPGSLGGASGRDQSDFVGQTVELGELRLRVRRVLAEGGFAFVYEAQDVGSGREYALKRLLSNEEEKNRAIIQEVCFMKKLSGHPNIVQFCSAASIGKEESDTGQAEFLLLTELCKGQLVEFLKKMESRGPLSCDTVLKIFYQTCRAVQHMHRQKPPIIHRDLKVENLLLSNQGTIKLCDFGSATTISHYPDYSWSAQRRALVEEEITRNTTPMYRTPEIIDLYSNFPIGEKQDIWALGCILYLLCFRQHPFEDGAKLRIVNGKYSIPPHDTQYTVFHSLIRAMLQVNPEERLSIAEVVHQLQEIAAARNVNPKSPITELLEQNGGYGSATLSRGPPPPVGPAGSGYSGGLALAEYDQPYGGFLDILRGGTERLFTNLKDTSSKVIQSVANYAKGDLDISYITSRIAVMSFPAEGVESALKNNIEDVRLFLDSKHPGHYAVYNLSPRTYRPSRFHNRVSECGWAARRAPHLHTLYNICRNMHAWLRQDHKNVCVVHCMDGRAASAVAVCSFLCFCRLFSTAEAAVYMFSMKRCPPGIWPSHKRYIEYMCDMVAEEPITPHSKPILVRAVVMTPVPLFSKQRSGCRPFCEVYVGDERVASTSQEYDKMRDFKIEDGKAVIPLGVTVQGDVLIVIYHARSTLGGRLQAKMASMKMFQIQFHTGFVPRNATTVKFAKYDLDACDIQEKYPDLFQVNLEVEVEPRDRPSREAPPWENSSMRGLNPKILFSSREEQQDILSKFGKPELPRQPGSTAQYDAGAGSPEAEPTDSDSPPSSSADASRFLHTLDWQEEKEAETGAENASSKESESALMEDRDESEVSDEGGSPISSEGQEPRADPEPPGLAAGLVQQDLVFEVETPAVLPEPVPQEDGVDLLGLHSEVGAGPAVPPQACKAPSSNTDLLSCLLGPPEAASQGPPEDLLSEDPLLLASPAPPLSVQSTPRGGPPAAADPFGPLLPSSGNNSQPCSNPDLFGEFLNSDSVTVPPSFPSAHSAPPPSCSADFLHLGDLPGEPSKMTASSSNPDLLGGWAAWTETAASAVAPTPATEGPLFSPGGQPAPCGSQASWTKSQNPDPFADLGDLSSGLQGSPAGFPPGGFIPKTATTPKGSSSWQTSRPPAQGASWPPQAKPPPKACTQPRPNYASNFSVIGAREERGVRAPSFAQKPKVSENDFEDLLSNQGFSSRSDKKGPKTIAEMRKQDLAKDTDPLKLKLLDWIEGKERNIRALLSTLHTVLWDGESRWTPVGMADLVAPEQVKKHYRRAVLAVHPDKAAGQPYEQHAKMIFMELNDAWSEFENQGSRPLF

[9] = molecular target: Serine/threonine-protein kinase MRCK beta (Homo sapiens) (UniProt Q9Y5S2); assay: Selectivity interaction (KinomeScan (DiscoverX)) EUB0000092b CDC42BPB; details: at 10 µM
[10] = test system: ALK tyrosine kinase receptor (Homo sapiens), Q9UM73 [R1275Q]; assay: (§1) Selectivity interaction (LanthaScreen Eu Kinase Binding Assay) EUB0001632a ALK; details: at 10 µM
ALK tyrosine kinase receptor (Homo sapiens), Q9UM73 [R1275Q], sequence (Q9UM73 whole entry R1275Q): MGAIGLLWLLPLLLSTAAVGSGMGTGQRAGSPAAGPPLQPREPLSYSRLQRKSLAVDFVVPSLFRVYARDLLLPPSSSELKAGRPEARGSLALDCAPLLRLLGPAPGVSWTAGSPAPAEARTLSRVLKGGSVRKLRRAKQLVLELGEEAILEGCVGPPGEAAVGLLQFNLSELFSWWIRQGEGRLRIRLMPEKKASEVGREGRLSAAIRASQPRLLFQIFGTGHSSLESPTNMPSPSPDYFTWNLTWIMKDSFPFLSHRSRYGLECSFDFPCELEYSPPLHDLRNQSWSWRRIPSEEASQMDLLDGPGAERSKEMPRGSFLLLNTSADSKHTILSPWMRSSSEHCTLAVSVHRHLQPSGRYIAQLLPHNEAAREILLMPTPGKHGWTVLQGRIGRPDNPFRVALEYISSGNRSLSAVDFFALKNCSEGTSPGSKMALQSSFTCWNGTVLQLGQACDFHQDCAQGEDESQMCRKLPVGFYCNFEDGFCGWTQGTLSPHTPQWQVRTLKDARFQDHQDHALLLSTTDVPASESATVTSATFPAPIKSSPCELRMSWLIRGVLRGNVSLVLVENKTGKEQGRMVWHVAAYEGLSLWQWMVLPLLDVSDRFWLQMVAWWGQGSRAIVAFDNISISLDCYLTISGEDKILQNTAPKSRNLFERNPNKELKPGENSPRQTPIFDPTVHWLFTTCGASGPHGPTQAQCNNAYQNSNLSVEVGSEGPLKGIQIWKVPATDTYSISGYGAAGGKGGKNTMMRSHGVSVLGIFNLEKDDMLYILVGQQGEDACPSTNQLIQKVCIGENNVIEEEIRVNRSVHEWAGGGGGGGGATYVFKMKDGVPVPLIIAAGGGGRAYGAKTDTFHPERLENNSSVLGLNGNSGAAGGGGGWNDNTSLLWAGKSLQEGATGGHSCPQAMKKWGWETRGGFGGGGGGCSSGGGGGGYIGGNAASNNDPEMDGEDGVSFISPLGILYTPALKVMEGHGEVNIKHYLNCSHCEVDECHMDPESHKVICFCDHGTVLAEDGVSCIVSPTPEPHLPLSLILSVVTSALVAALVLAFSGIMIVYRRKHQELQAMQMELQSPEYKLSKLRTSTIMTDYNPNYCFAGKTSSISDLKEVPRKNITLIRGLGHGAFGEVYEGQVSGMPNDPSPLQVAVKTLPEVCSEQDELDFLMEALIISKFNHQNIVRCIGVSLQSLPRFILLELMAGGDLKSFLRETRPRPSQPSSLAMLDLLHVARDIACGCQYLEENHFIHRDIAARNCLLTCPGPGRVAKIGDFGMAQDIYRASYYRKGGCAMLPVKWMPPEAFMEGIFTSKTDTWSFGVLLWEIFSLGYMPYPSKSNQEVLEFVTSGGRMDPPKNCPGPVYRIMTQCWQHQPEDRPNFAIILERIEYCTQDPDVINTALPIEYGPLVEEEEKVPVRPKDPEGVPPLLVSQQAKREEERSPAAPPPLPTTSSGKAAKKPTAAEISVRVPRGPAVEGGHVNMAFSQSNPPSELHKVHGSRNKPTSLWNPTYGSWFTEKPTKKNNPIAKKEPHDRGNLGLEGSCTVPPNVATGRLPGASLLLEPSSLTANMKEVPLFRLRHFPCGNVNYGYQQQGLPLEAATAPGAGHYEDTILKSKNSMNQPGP

[11] = test system: ALK tyrosine kinase receptor (Homo sapiens), Q9UM73 [L1196M]; assay: as §1; details: at 10 µM
ALK tyrosine kinase receptor (Homo sapiens), Q9UM73 [L1196M], sequence (Q9UM73 whole entry L1196M, looked up): as the sequence (Q9UM73 whole entry R1275Q) above, with L1196M, Q1275R counted along it

[12] = molecular target: T3, Serine/threonine-protein kinase Sgk2 (Homo sapiens) (UniProt Q9HBY8); assay: Selectivity interaction (Kinase screening (Nanosyn)) EUB0000604a SGK2
T3 sequence (whole entry): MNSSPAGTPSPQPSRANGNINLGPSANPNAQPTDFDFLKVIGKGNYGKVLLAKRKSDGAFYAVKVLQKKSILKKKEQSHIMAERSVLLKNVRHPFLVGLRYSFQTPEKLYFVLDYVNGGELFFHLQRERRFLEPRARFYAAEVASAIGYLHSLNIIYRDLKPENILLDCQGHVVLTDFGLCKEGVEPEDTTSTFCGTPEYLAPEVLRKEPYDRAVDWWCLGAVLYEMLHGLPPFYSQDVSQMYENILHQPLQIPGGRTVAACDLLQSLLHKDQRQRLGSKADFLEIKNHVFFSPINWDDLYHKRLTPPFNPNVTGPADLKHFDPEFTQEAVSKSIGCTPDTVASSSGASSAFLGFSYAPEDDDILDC

High affinity nerve growth factor receptor, sequence (P04629 33-796 limits assumed): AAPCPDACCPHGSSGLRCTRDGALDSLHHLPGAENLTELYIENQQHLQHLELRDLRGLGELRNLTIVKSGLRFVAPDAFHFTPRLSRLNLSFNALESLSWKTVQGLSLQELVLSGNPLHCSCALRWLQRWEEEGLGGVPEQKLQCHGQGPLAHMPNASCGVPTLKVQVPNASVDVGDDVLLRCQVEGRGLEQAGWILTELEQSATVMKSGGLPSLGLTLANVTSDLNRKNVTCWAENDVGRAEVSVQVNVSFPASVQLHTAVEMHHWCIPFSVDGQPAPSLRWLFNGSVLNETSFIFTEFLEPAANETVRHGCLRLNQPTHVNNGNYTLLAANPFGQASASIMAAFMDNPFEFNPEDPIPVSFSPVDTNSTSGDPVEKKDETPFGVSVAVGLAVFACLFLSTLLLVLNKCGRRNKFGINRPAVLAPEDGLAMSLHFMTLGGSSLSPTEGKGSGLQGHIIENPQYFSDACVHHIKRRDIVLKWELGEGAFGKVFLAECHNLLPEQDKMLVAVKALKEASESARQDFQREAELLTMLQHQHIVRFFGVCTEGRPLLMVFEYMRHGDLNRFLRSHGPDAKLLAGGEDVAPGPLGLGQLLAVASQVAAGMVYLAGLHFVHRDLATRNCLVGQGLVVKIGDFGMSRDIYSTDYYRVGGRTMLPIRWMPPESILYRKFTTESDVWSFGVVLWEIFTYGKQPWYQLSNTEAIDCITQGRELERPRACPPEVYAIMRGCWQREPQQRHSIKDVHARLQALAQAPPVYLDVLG

Question: How did the % of control [1] turn out when `CN(C)CCOc1ccc(-c2nc(-c3ccncc3)c(-c3ccc4c(c3)CC/C4=N\O)[nH]2)cc1` was run?
Answer: Its % of control is 90%.

Question: With `Nc1cnc(N2CCc3cc(S(=O)(=O)Nc4c(F)cc(Cl)cc4F)cc(N4CCCC4=O)c32)nc1` [TP-020n] as the compound, how does the % of control [2] read?
Answer: The % of control was 100%.

Question: For `N#Cc1cccc(-c2c[nH]c3ncnc(N4CCOCC4)c23)c1`, which % of control [3] is on record?
Answer: Its % of control is 73%.

Question: And the % of inhibition [4]?
Answer: Its % of inhibition is -4%.

Question: What about the % of control [5] of the same compound?
Answer: Its % of control is 96%.

Question: `COc1cc(N(C)c2ccnc3ccc(C(F)(F)F)cc23)cc(OC)c1OC` was tested. Which % binding [6] did it give?
Answer: The % binding was 72%.

Question: Which % of control [7] does the source give for `COc1cc(Nc2nc(C)cc(-c3cnn4nc(OC)ccc34)n2)cc(C(F)(F)F)c1` here?
Answer: Its % of control is 95%.

Question: For `O=C(NOC[C@H](O)CO)c1ccc(F)c(F)c1Nc1ccc(I)cc1F`, which % of control [8] is on record?
Answer: The % of control was 71%.

Question: For `CCC(=O)N1CCN(c2ccc(-n3c(=O)ccc4cnc5ccc(-c6cnc7ccccc7c6)cc5c43)cc2C(F)(F)F)CC1`, which % of control [9] is on record?
Answer: The % of control was 3.4%.

Question: With `Cn1cc(-n2cnc3c(NCc4nc5cc(Cl)c(Cl)cc5[nH]4)nc(N4CCOCC4)nc32)cn1` as the compound, how does the % of inhibition [10] read?
Answer: Its % of inhibition is -41.1%.

Question: What about the % of inhibition [11] of the same compound?
Answer: Its % of inhibition is -25.5%.

Question: Which % of inhibition [12] does the source give for `Cc1cnc(Nc2ccc(F)cc2Cl)nc1-c1c[nH]c(C(=O)N[C@H](CO)c2cccc(Cl)c2)c1` here?
Answer: The % of inhibition was 41%.
